Reference: the supplement of paper PMC10627819

Tests used:
[1] = test system: S. pneumoniae D39V; experiment: Bliss interaction score (quartile over a dose matrix) (fitness difference); higher = more antagonism (negative = synergy)
Summary of the method: (§1)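 The Bliss score takes observed fitness and subtracts the expected fitness, calculated as a product of single-drug fitness values. Those single-drug values were inferred from the combination data. Fitness is OD595 at entry into stationary phase divided by the plate's robust no-drug mean, capped at 1, and the score is summarised by quartiles across technical, biological and donor/recipient replicates.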

[2] = test system: B. subtilis 168; experiment: as above
Summary of the method: as §1

[3] = test system: S. aureus Newman; experiment: as above
Summary of the method: as §1

[4] = test system: S. aureus DSM 20231; experiment: as above
Summary of the method: as §1

[5] = test system: S. pneumoniae D39V; experiment: fitness (endpoint OD595 vs no drug) (fraction); higher = more growth
Summary of the method: (§2)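 At 37 °C, bacteria in TSB, LB Lennox or CY were grown in 384-well plates from a starting OD595 of 0.01. OD595 was measured every 30 min for 14 h, with the first reading used as background. Fitness is the optical density at the switch to stationary phase as a fraction of the robust mean of no-drug control wells, capped at 1.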

[6] = test system: B. subtilis 168; experiment: as above
Summary of the method: as §2

[7] = test system: S. aureus Newman; experiment: as above
Summary of the method: as §2

[8] = test system: S. aureus DSM 20231; experiment: as above
Summary of the method: as §2
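Wherever Bliss interaction score (quartile over a dose matrix) is given: first quartile when negative (synergy) and third quartile when positive (antagonism).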
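Wherever fitness (endpoint OD595 vs no drug) is given: OD595 on entry to stationary phase over no-drug wells; at most 1.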

COc1cccc2c1C(=O)c1c(O)c3c(c(O)c1C2=O)C[C@@](O)(C(=O)CO)C[C@@H]3O[C@H]1C[C@H](N)[C@H](O)[C@H](C)O1 [Doxorubicin] + COc1c(N2C[C@@H]3CCCN[C@@H]3C2)c(F)cc2c(=O)c(C(=O)O)cn(C3CC3)c12 [Moxifloxacin]
Details	Bliss interaction score
[1]	-0.0668
[2]	-0.0247
[3]	0.177
[4]	0.0448

fitness
Details	first compound 0.25 µg/mL	first compound 0.5 µg/mL	first compound 0.625 µg/mL	first compound 1 µg/mL	first compound 1.25 µg/mL	first compound 2.5 µg/mL
[5], partner 0.005 µg/mL	0.916	0.919	–	0.812	–	–
[5], partner 0.01 µg/mL	0.955	0.911	–	0.857	–	–
[5], partner 0.02 µg/mL	0.894	0.822	–	0.779	–	–
[5], partner 0.0312 µg/mL	0.0684	0.0433	–	0.0394	–	–
[5], partner 0.0625 µg/mL	0.0549	0.0614	–	0.0753	–	–
[5], partner 0.125 µg/mL	0.0583	0.0523	–	0.0416	–	–
[6], partner 0.0312 µg/mL	–	–	0.0436	–	0.0321	0.0239
[6], partner 0.0625 µg/mL	–	–	0.0396	–	0.0329	0.0327
[6], partner 0.125 µg/mL	–	–	0.0249	–	0.0462	0.026
[6], partner 2 µg/mL	–	–	0.0338	–	0.0341	0.0223
[6], partner 4 µg/mL	–	–	0.0299	–	0.0351	0.0369
[6], partner 8 µg/mL	–	–	0.0347	–	0.0318	0.0314
[7], partner 0.0075 µg/mL	–	–	0.756	–	0.722	0.659
[7], partner 0.015 µg/mL	–	–	0.66	–	0.667	0.611
[8], partner 0.0075 µg/mL	–	–	0.751	–	0.78	0.735
[8], partner 0.015 µg/mL	–	–	0.759	–	0.764	0.706
[8], partner 0.03 µg/mL	–	–	0.623	–	0.631	0.618

fitness, [8], one replicate
Details	first compound 0.625 µg/mL	first compound 1.25 µg/mL	first compound 2.5 µg/mL
partner 0.06 µg/mL	0.664	0.655	0.638
partner 0.12 µg/mL	0.575	0.531	0.537

C[C@@H]1O[C@@H]1P(=O)(O)O [Fosfomycin] + Cc1ncc([N+](=O)[O-])n1CCO [Metronidazole]
Details	Bliss interaction score
[1]	0.0507
[2]	0.0663
[3]	-0.0452
[4]	-0.0362

fitness
Details	partner 0.625 µg/mL	partner 1.073 µg/mL	partner 1.25 µg/mL	partner 2.145 µg/mL	partner 2.5 µg/mL	partner 4.29 µg/mL	partner 5 µg/mL
[5], first compound 1.25 µg/mL	–	0.957	0.975	0.94	0.992	0.95	1
[5], first compound 2.5 µg/mL	–	0.929	0.97	0.798	0.965	0.914	0.995
[5], first compound 5 µg/mL	–	0.87	0.857	0.893	0.886	0.864	0.847
[6], first compound 1.562 µg/mL	0.72	–	0.687	–	0.701	–	–
[6], first compound 3.124 µg/mL	0.679	–	0.627	–	0.634	–	–
[6], first compound 6.248 µg/mL	0.583	–	0.573	–	0.481	–	–
[7], first compound 0.781 µg/mL	0.58	–	0.636	–	0.612	–	–
[7], first compound 1.562 µg/mL	0.502	–	0.511	–	0.453	–	–
[7], first compound 3.124 µg/mL	0.133	–	0.079	–	0.0859	–	–
[8], first compound 0.781 µg/mL	0.785	–	0.783	–	0.852	–	–
[8], first compound 1.562 µg/mL	0.605	–	0.624	–	0.682	–	–
[8], first compound 3.124 µg/mL	0.497	–	0.493	–	0.493	–	–

fitness, [7], one replicate
Details	first compound 0.781 µg/mL	first compound 1.562 µg/mL	first compound 3.124 µg/mL
partner 0.781 µg/mL	0.587	0.579	0.211
partner 1.562 µg/mL	0.565	0.538	0.236
partner 3.124 µg/mL	0.584	0.546	0.272

COc1cccc2c1C(=O)c1c(O)c3c(c(O)c1C2=O)C[C@@](O)(C(=O)CO)C[C@@H]3O[C@H]1C[C@H](N)[C@H](O)[C@H](C)O1 [Doxorubicin] + Cn1nnc(-c2ccc(-c3ccc(N4C[C@H](CO)OC4=O)cc3F)cn2)n1 [Tedizolid]
Details	Bliss interaction score
[1]	-0.0807
[2]	0.0912
[3]	-0.0534
[4]	-0.0759

fitness
Details	partner 0.03125 µg/mL	partner 0.0625 µg/mL	partner 0.125 µg/mL	partner 0.25 µg/mL	partner 0.5 µg/mL
[5], first compound 0.25 µg/mL	0.897	0.909	0.747	0.288	0.131
[5], first compound 0.5 µg/mL	0.903	0.938	0.748	0.288	0.114
[5], first compound 1 µg/mL	0.917	0.953	0.774	0.282	0.11
[7], first compound 0.625 µg/mL	–	0.786	0.758	–	–
[7], first compound 1.25 µg/mL	–	0.751	0.731	–	–
[7], first compound 2.5 µg/mL	–	0.693	0.655	–	–
[8], first compound 0.625 µg/mL	–	0.813	0.728	0.339	–
[8], first compound 1.25 µg/mL	–	0.783	0.7	0.374	–
[8], first compound 2.5 µg/mL	–	0.738	0.673	–	–

C[C@@H]1O[C@@H]1P(=O)(O)O [Fosfomycin] + CN[C@H](CC(C)C)C(=O)N[C@H]1C(=O)N[C@@H](CC(N)=O)C(=O)N[C@H]2C(=O)N[C@H]3C(=O)N[C@H](C(=O)N[C@H](C(=O)O)c4cc(O)cc(O)c4-c4cc3ccc4O)[C@H](O)c3ccc(c(Cl)c3)Oc3cc2cc(c3O[C@@H]2O[C@H](CO)[C@@H](O)[C@H](O)[C@H]2O[C@H]2C[C@](C)(N)[C@H](O)[C@H](C)O2)Oc2ccc(cc2Cl)[C@H]1O [Vancomycin]
Details	Bliss interaction score
[1]	-0.0646
[2]	0.029
[3]	0.103
[4]	0.0454

Details	fitness
[5], first compound 1.25 µg/mL, partner 0.03125 µg/mL	0.97
[5], first compound 1.25 µg/mL, partner 0.0625 µg/mL	0.916
[5], first compound 1.25 µg/mL, partner 0.125 µg/mL	0.905
[5], first compound 1.25 µg/mL, partner 0.5 µg/mL	0.0887
[5], first compound 2.5 µg/mL, partner 0.03125 µg/mL	0.87
[5], first compound 2.5 µg/mL, partner 0.0625 µg/mL	0.869
[5], first compound 2.5 µg/mL, partner 0.125 µg/mL	0.888
[5], first compound 2.5 µg/mL, partner 0.5 µg/mL	0.0855
[5], first compound 5 µg/mL, partner 0.03125 µg/mL	0.719
[5], first compound 5 µg/mL, partner 0.0625 µg/mL	0.726
[5], first compound 5 µg/mL, partner 0.25 µg/mL	0.255
[5], first compound 5 µg/mL, partner 0.5 µg/mL	0.0851
[7], first compound 0.781 µg/mL, partner 0.1875 µg/mL	0.649
[7], first compound 0.781 µg/mL, partner 0.375 µg/mL	0.628
[7], first compound 0.781 µg/mL, partner 0.75 µg/mL	0.655
[7], first compound 1.562 µg/mL, partner 0.1875 µg/mL	0.555
[7], first compound 1.562 µg/mL, partner 0.375 µg/mL	0.563
[7], first compound 1.562 µg/mL, partner 0.75 µg/mL	0.548
[7], first compound 3.124 µg/mL, partner 0.1875 µg/mL	0.279
[7], first compound 3.124 µg/mL, partner 0.375 µg/mL	0.255
[7], first compound 3.124 µg/mL, partner 0.75 µg/mL	0.245
[8], first compound 0.781 µg/mL, partner 0.1875 µg/mL	0.757
[8], first compound 0.781 µg/mL, partner 0.375 µg/mL	0.751
[8], first compound 0.781 µg/mL, partner 0.75 µg/mL	0.757
[8], first compound 1.562 µg/mL, partner 0.1875 µg/mL	0.596
[8], first compound 1.562 µg/mL, partner 0.375 µg/mL	0.638
[8], first compound 1.562 µg/mL, partner 0.75 µg/mL	0.624
[8], first compound 3.124 µg/mL, partner 0.1875 µg/mL	0.525
[8], first compound 3.124 µg/mL, partner 0.375 µg/mL	0.546
[8], first compound 3.124 µg/mL, partner 0.75 µg/mL	0.542
